Measured values reported in patent US20250009844A1, “MATURATION OF MUCOSAL DEFENSE AND GUT/LUNG FUNCTION IN THE PRETERM INFANT” (Novozymes A/S, priority 2017, published 2025).
No end group written: not given here.

Tested on: bacteria localization at the surface of the intestinal mucosa
Test: Localization of bacteria by FISH with mucin immunostaining, lysis zone (Example 14)
Format: in vivo
Details: orally administered; compared with mice on a low fat or western diet
Method: Immunostaining of mucins and localization of bacteria by FISH Mucus immunostaining was paired with fluorescent in situ hybridization (FISH), as previously described in order to analyze bacteria localization at the surface of the intestinal mucosa. Briefly, colonic tissues (proximal colon, 2nd cm from the cecum) without fecal material were placed in methanol-Carnoy's fixative solution (60% methanol, 30% chloroform, 10% glacial acetic acid) for a minimum of 3 hours at room temperature. Tissues were then washed in methanol 2×30 min, ethanol 2×15 min, ethanol/xylene (1:1), 15 min and xylene 2×15 min, followed by embedding in Paraffin with a vertical orientation. Five μm sections were performed and dewax by preheating at 60° C. for 10 min, followed by xylene 60° C. for 10 min, xylene for 10 min and 99.5% ethanol for 10 minutes. Hybridization step was performed at 50° C. overnight with EUB338 probe (5′-GCTGCCTCCCGTAGGAGT-3′, with a 5′ labeling using Alexa 647) diluted to a final concentration of 10 μg/mL in hybridization buffer (20 mM Tris-HCl, pH 7.4, 0.9 M NaCl, 0.1% SDS, 20% formamide). After washing 10 min in wash buffer (20 mM Tris-HCl, pH 7.4, 0.9 M NaCl) and 3×10 min in PBS, PAP pen (Sigma-Aldrich) was used to mark around the section and block solution (5% fetal bovine serum in PBS) was added for 30 min at 4° C. […]

## human beta defensin 2 (GIGDPVTCLKSGAICHPVFCPRRYKQIGTCGLPGTKCCKKP; ends and bridges not checked; cysteine pairing not given here; listed as Homo sapiens) [hBD-2]
  Distance from the intestinal lining to bacterial population (lysis zone): profound effect on the distance
